By inhibition is commonly meant the change of the read-out against control, counted positive when it falls.

Test [1] has as its target Protein farnesyltransferase (Homo sapiens, UniProt P49354+P49356). The test can be described thus: Inhibition of recombinant human FTase using dansyl-GCVLS as substrate at 100 uM after 15 mins by fluorimetric analysis. In kind it is protein-complex assay.
Test [2] has as its system MOLT-4. Briefly: Growth inhibition of human MOLT4 cells at 10 uM after 48 hrs by single dose SRB assay. In kind it is functional. The conditions noted are these: for inhibition of growth at 10 µM: MOLT-4, 48 h, read-out: GI. In general terms: The SRB assay estimates cell density from bound dye.
The subject of test [3] is HL-60(TB). The test can be described thus: Growth inhibition of human HL-60(TB) cells at 10 uM after 48 hrs by single dose SRB assay. In kind it is functional. The conditions noted are these: for inhibition of growth at 10 µM: HL-60, 48 h, read-out: GI.
In test [4] the test system is NCI-H522. Briefly: Growth inhibition of human NCI-H522 cells at 10 uM after 48 hrs by single dose SRB assay. In kind it is functional. The conditions noted are these: for inhibition of growth at 10 µM: NCI-H522, 48 h, read-out: GI.
Test [5] deals with SF-295. Briefly: Growth inhibition of human SF295 cells at 10 uM after 48 hrs by single dose SRB assay. Format: functional.
The test system of test [6] is EKVX. Briefly: Growth inhibition of human EKVX cells at 10 uM after 48 hrs by single dose SRB assay. In kind it is functional. Particulars: for inhibition of growth at 10 µM: read-out: GI.
Test [7] deals with OVCAR-3. Briefly: Growth inhibition of human OVCAR3 cells at 10 uM after 48 hrs by single dose SRB assay. Format: functional.
Test [8] in a line: (§1) Growth inhibition of human […] cells at 10 uM after 48 hrs by single dose SRB assay. Format: functional. Particulars: read-out: GI.
In test [9] the test system is U-251. Briefly: Growth inhibition of human U251 cells at 10 uM after 48 hrs by single dose SRB assay. In kind it is functional. The conditions noted are these: for inhibition of growth at 10 µM: U-251, 48 h, read-out: GI.
Test [10] deals with RPMI-8226. The test can be described thus: Growth inhibition of human RPMI8226 cells at 10 uM after 48 hrs by single dose SRB assay. In kind it is functional.
Test [11] deals with MDA-MB-231. Briefly: Growth inhibition of human MDA-MB-231 cells at 10 uM after 48 hrs by single dose SRB assay. In kind it is functional.
Test [12] deals with MDA-MB-468. Briefly: Growth inhibition of human MDA-MB-468 cells at 10 uM after 48 hrs by single dose SRB assay. In kind it is functional. Particulars: for inhibition of growth at 10 µM: MDA-MB-468, 48 h, read-out: GI.
Test [13] relates to HCT-15. Briefly: Growth inhibition of human HCT15 cells at 10 uM after 48 hrs by single dose SRB assay. Format: functional. The conditions noted are these: for inhibition of growth at 10 µM: HCT-15, 48 h, read-out: GI.
For test [14], the system named is UACC-62. The test can be described thus: Growth inhibition of human UACC62 cells at 10 uM after 48 hrs by single dose SRB assay. Format: functional. The conditions noted are these: for inhibition of growth at 10 µM: UACC-62, 48 h, read-out: GI.
Test [15] has as its system SNB-19. The test can be described thus: Growth inhibition of human SNB19 cells at 10 uM after 48 hrs by single dose SRB assay. In kind it is functional.
The test system of test [16] is CAKI-1. Briefly: Growth inhibition of human Caki1 cells at 10 uM after 48 hrs by single dose SRB assay. Format: functional. The conditions noted are these: for inhibition of growth at 10 µM: CAKI-1, 48 h, read-out: GI.
In test [17] the test system is UO-31. The test can be described thus: Growth inhibition of human UO31 cells at 10 uM after 48 hrs by single dose SRB assay. Particulars: for inhibition of growth at 10 µM: UO-31, 48 h, read-out: GI. Format: functional.
For test [18], the system named is OVCAR-8. Briefly: Growth inhibition of human OVCAR8 cells at 10 uM after 48 hrs by single dose SRB assay. In kind it is functional.
Test [19] concerns CCRF-CEM. The test can be described thus: Growth inhibition of human CCRF-CEM cells at 10 uM after 48 hrs by single dose SRB assay. In kind it is functional. Particulars: for inhibition of growth at 10 µM: read-out: GI.
Test [20] deals with SN12C. Briefly: Growth inhibition of human SN12C cells at 10 uM after 48 hrs by single dose SRB assay. In kind it is functional. Particulars: for inhibition of growth at 10 µM: read-out: GI.
Test [21] deals with NCI/ADR-RES. The test can be described thus: Growth inhibition of human NCI/ADR-RES cells at 10 uM after 48 hrs by single dose SRB assay. Particulars: for inhibition of growth at 10 µM: read-out: GI. Format: functional.
Test [22] has as its system SW-620. The test can be described thus: Growth inhibition of human SW620 cells at 10 uM after 48 hrs by single dose SRB assay. In kind it is functional.
Test [23] has as its system SK-MEL-5. Briefly: Growth inhibition of human SK-MEL-5 cells at 10 uM after 48 hrs by single dose SRB assay. In kind it is functional.
Test [24] relates to ACHN. Briefly: Growth inhibition of human ACHN cells at 10 uM after 48 hrs by single dose SRB assay. In kind it is functional.
For test [25], the system named is LOX IMVI. Briefly: Growth inhibition of human LOXIMVI cells at 10 uM after 48 hrs by single dose SRB assay. In kind it is functional.
Test [26] relates to HT-29. Briefly: Growth inhibition of human HT-29 cells at 10 uM after 48 hrs by single dose SRB assay. Format: functional.
Test [27] has as its system NCI-H226. Briefly: Growth inhibition of human NCI-H226 cells at 10 uM after 48 hrs by single dose SRB assay. In kind it is functional. The conditions noted are these: for inhibition of growth at 10 µM: NCI-H226, 48 h, read-out: GI.
For test [28], the system named is HCT166. The test is described as §1. In kind it is functional.
The test system of test [29] is HOP-92. The test can be described thus: Growth inhibition of human HOP92 cells at 10 uM after 48 hrs by single dose SRB assay. Format: functional. The conditions noted are these: for inhibition of growth at 10 µM: HOP-92, 48 h, read-out: GI.
The test system of test [30] is PC-3. Briefly: Growth inhibition of human PC3 cells at 10 uM after 48 hrs by single dose SRB assay. Format: functional. The conditions noted are these: PC-3, 48 h, read-out: GI.
The test system of test [31] is A498. The test can be described thus: Growth inhibition of human A498 cells at 10 uM after 48 hrs by single dose SRB assay. In kind it is functional. The conditions noted are these: A498, 48 h, read-out: GI.

Activity calls are given as the source filed them. The calls are words filed in the database; no cut-off is given here.

`CCOC(=O)C1=NN(C(=O)CN2c3ccccc3Sc3ccccc32)C(O)(c2ccccc2)C1` (configuration not stated): the inhibition in test [1] is 30.7%.
On to `Cc1c2c(nn1CC(=O)N1c3ccccc3Sc3ccccc31)CCCC2`, for which the inhibition of growth at 10 µM turned out to be 20.1% in test [2]; 15.2% in [4]; 8.4% in [8]; 10.2% in test [9]; 16.2% in [10] (RPMI-8226, 48 h, read-out: GI); 8% in [13]. Moreover, the inhibition of growth at 10 µM in test [14] came out at 13.2%; in test [16], 8.1%; in test [17] it was 10%; in [19], 6.5%; in test [20], 5.6%; in [21], 6.2%. The “growth inhibition (GI)” value in [3], in [5], in test [6], in [7], in [11] and in test [12] was “inactive” throughout. In addition, the “growth inhibition (GI)” value in test [15], in test [18], in test [22], in [23], in test [24] and in test [25] was “inactive” in each case. The “growth inhibition (GI)” value in test [26] and in test [27] was “inactive” in each case. In [1], the inhibition was found to be 0%.
In the case of `CCOC(=O)C1=NN(C(=O)CCN2c3ccccc3Sc3ccccc32)C(O)(c2ccccc2)C1` (configuration not stated), the inhibition in test [1] was 22.8%.
Turning to `Cc1c2c(nn1C(=O)CN1c3ccccc3Sc3ccccc31)CCCC2`, in test [1], the inhibition was 0%.
With `CCOC(=O)c1cnn(CC(=O)N2c3ccccc3Sc3ccccc32)c1N`, the inhibition of growth at 10 µM in test [2] turned out to be 7.6%; in [3] it was 83.2%; in test [4], 31.9%; in test [5] (SF-295, 48 h, read-out: GI), 6.7%; in [6], 5.3%; in [12], 15.3%. Moreover, the inhibition of growth at 10 µM is 25.4% in test [13]; 21.3% in test [30]; 6.3% in test [14]; 16% in test [16]; 13.3% in test [17]; 11.8% in test [31]. Also, the inhibition of growth at 10 µM worked out at 6.9% in [23] (SK-MEL-5, 48 h, read-out: GI); 13.2% in test [26] (HT-29, 48 h, read-out: GI); 8.1% in [27]. The “growth inhibition (GI)” value in [7], in test [28], in test [9], in [29], in [10] and in [11] was “inactive” throughout. Besides, the “growth inhibition (GI)” value in [15], in test [18], in [19], in test [20], in test [21] and in test [22] was “inactive” throughout. Moreover, the “growth inhibition (GI)” value in test [24] and in test [25] was “inactive” in each case. The inhibition in [1] amounted to 24.8%.
With `CCOC(=O)c1cc(-c2ccccc2)nn1CC(=O)N1c2ccccc2Sc2ccccc21`, the inhibition in [1] was found to be 0%.
Consider `Cc1cc(-c2ccccc2)n(C(=O)CN2c3ccccc3Sc3ccccc32)n1`, for which the inhibition of growth at 10 µM in test [2] was found to be 9.6%; in test [3] it was 31.5%; in test [6], 5%; in [9], 9.2%; in [29], 14%; in [30], 13%. Moreover, the inhibition of growth at 10 µM in test [16] was 16.2%; in test [17], 9%; in test [18] (OVCAR-8, 48 h, read-out: GI), 6.3%; in [31], 17.3%; in test [20] it was 7.2%; in [27], 7.2%. For the same compound, the “growth inhibition (GI)” value in test [4], in test [5], in [7], in test [28], in test [10] and in test [11] was “inactive” each time. Further, the “growth inhibition (GI)” value in [12], in test [13], in test [14], in test [15], in test [19] and in test [21] was “inactive” throughout. Also, the “growth inhibition (GI)” value in test [22], in test [23], in [24], in [25] and in test [26] was “inactive” throughout. In addition, the inhibition in [1] is 0%.
For the compound `Cc1c2c(nn1C(=O)CN1c3ccccc3Sc3ccccc31)CCCC2=O`, the inhibition in [1] turned out to be 0%.
Still for that read-out and setting: for `CCOC(=O)c1cc(-c2ccccc2)n(CC(=O)N2c3ccccc3Sc3ccccc32)n1` the value was 0%; for `Cc1cc(-c2ccccc2)n(CC(=O)N2c3ccccc3Sc3ccccc32)n1`, 0%; for `N#Cc1cnn(C(=O)CCN2c3ccccc3Sc3ccccc32)c1N`, 4.7%.
On to `Cc1c2c(nn1C(=O)CCN1c3ccccc3Sc3ccccc31)CCCC2`, for which the “growth inhibition (GI)” value in test [2], in test [5], in test [7], in [9], in [10] and in [11] was “inactive” each time. For the same compound, the “growth inhibition (GI)” value in test [13], in test [15], in test [16], in test [17], in test [18] and in test [20] was “inactive” each time. For the same compound, the “growth inhibition (GI)” value in [22], in test [23], in test [24], in [25] and in test [26] was “inactive” each time. For the same compound, the inhibition of growth at 10 µM in [3] amounted to 19.6%; in [4], 9.1%; in [6], 8.3%; in test [8] it was 12.4%; in test [29], 31.6%; in [12], 11.2%. Also, the inhibition of growth at 10 µM in test [30] was 13%; in test [14], 7.1%; in [19], 12.8%; in test [21] it was 8.2%; in test [27], 12.8%. The inhibition in [1] worked out at 0%.
Regarding `Cc1cc(C)n(CC(=O)N2c3ccccc3Sc3ccccc32)n1`, in test [1], the inhibition was determined as 22.4%.
On to `Cc1c2c(nn1C(=O)CCN1c3ccccc3Sc3ccccc31)CCCC2=O`, for which, in [1], the inhibition came to 19.5%.
Turning to `Cc1c2c(nn1CC(=O)N1c3ccccc3Sc3ccccc31)CCCC2=O`, the inhibition in test [1] is 46.6%.

The values are drawn from ChEMBL document CHEMBL2157998, “Synthesis and biological evaluation of new phenothiazine derivatives bearing a pyrazole unit as protein farnesyltransferase inhibitors” (Bioorg Med Chem Lett, 2012).
